Source: publication PMC10165273, “Itch receptor MRGPRX4 interacts with the receptor activity–modifying proteins” (The Journal of Biological Chemistry, 2023)
Where two headings read alike, the source gives them in different places.

Molecular target: T1, MRGPRX4 + RAMP1 (Homo sapiens, UniProt Q96LA9)
T1 construct: expressed in transfected cells; host or cells: HEK293T
Experiment: IP1 accumulation, MRGPRX4 coexpressed with RAMP1
Format: cell-based
Details: for activation at 100 µM / activation at 20 µM / activation at 4 µM / activation at 0.8 µM / activation at […] / activation at 0.032 µM: 2 h; for Emax: Figure 4a bottom, MRGPRX4 alone = 100, read-out: efficacy
Description: HEK293T cells were transfected with 1 pg/cell of MRGPRX4 DNA, and the amount of DNA was kept constant at 2 pg/cell with pcDNA3.1(+) empty vector, unless otherwise specified. Twenty four hours after transfection, IP1 assay was performed as previously described ([51]). When applicable, cells were treated with 1 μM YM254890 (YM) or different concentrations of U73122 for 1 h prior to addition of agonist or buffer. After incubation for 2 h, HTRF reagents and IP1 calibration standards were added and incubated for 2 h in the dark at room temperature. Time-resolved fluorescence signals were read on the BioTek Synergy NEO-TRF Hybrid multi-mode reader (BioTek Instruments). All data were carried out in three independent experiments with three technical replicate each.
For a homogenous transfection of MRGPRX4, a master mix of MRGPRX4 DNA was made prior to addition of the RAMP DNA. […]
Data reduction, standard calibration, and transformation of HTRF data were performed as previously described ([51]). Normalized IP1 values were calculated relative to the unstimulated mock-transfected cells (set to 0%) and fully stimulated MRGPRX4 (alone if applicable) (set to 100%).

T1 sequence (Q96LA9 whole entry): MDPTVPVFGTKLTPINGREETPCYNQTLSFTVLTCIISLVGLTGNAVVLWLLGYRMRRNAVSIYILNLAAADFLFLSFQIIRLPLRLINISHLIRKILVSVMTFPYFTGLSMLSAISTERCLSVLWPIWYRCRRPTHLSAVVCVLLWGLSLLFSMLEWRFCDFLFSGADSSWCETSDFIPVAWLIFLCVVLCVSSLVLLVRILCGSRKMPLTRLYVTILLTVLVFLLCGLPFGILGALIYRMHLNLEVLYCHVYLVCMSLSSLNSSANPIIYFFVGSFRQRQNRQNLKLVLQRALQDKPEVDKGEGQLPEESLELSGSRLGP

SMILES: CC(C)[C@H]1CC[C@H](C(=O)N[C@H](Cc2ccccc2)C(=O)O)CC1 [Nateglinide]
- activation at 100 µM (log [nateglinide] (M) -4, MRGPRX4+RAMP10.5pg 1:0.5, Supplementary Figure 5d, read-out: IP1 accumulation (normalized)): 99.2%
- activation at 20 µM (log [nateglinide] (M) -4.69897, MRGPRX4+RAMP10.5pg 1:0.5, Supplementary Figure 5d, read-out: IP1 accumulation (normalized)): 78.1%
- activation at 20 µM (log [nateglinide] (M) -4.69897, MRGPRX4+RAMP1 0.75pg 1:0.75, Supplementary Figure 5d, read-out: IP1 accumulation (normalized)): 84.8%
- activation at 20 µM (log [nateglinide] (M) -4.69897, MRGPRX4+RAMP1 1pg 1:1, Supplementary Figure 5d, 5g, read-out: IP1 accumulation (normalized)): 72.1%
- activation at 4 µM (log [nateglinide] (M) -5.39794, MRGPRX4+RAMP10.5pg 1:0.5, Supplementary Figure 5d, read-out: IP1 accumulation (normalized)): 49.7%
- activation at 4 µM (log [nateglinide] (M) -5.39794, MRGPRX4+RAMP1 0.75pg 1:0.75, Supplementary Figure 5d, read-out: IP1 accumulation (normalized)): 44.1%
- activation at 4 µM (log [nateglinide] (M) -5.39794, MRGPRX4+RAMP1 1pg 1:1, Supplementary Figure 5d, 5g, read-out: IP1 accumulation (normalized)): 39.2%
- activation at 0.8 µM (log [nateglinide] (M) -6.09691, MRGPRX4+RAMP10.5pg 1:0.5, Supplementary Figure 5d, read-out: IP1 accumulation (normalized)): 18.6%
- activation at 0.8 µM (log [nateglinide] (M) -6.09691, MRGPRX4+RAMP1 0.75pg 1:0.75, Supplementary Figure 5d, read-out: IP1 accumulation (normalized)): 14.6%
- activation at 0.8 µM (log [nateglinide] (M) -6.09691, MRGPRX4+RAMP1 1pg 1:1, Supplementary Figure 5d, 5g, read-out: IP1 accumulation (normalized)): 12.9%
- activation at […] (log [nateglinide] (M) -6.79588, MRGPRX4+RAMP10.5pg 1:0.5, Supplementary Figure 5d, read-out: IP1 accumulation (normalized)): 8.57%
- activation at […] (log [nateglinide] (M) -6.79588, MRGPRX4+RAMP1 0.75pg 1:0.75, Supplementary Figure 5d, read-out: IP1 accumulation (normalized)): 11.2%
- activation at 0.032 µM (log [nateglinide] (M) -7.49485, MRGPRX4+RAMP10.5pg 1:0.5, Supplementary Figure 5d, read-out: IP1 accumulation (normalized)): 7.92%
- activation at 0.032 µM (log [nateglinide] (M) -7.49485, MRGPRX4+RAMP1 0.75pg 1:0.75, Supplementary Figure 5d, read-out: IP1 accumulation (normalized)): 8.7%
- activation at 0.032 µM (log [nateglinide] (M) -7.49485, MRGPRX4+RAMP1 1pg 1:1, Supplementary Figure 5d, 5g, read-out: IP1 accumulation (normalized)): 7.65%
- activation at 100 µM (ratio MRGPRX4:RAMP1 1:0.25, log [Nateglinide] (M) -4, Fig S3a, read-out: IP1 accumulation): 102%
- activation at 20 µM (ratio MRGPRX4:RAMP1 1:0.25, log [Nateglinide] (M) -4.69897, Fig S3a, read-out: IP1 accumulation): 76.7%
- activation at 4 µM (ratio MRGPRX4:RAMP1 1:0.25, log [Nateglinide] (M) -5.39794, Fig S3a, read-out: IP1 accumulation): 42.2%
- activation at 0.8 µM (ratio MRGPRX4:RAMP1 1:0.25, log [Nateglinide] (M) -6.09691, Fig S3a, read-out: IP1 accumulation): 29.4%
- activation at […] (ratio MRGPRX4:RAMP1 1:0.25, log [Nateglinide] (M) -6.79588, Fig S3a, read-out: IP1 accumulation): 26.1%
- activation at 0.032 µM (ratio MRGPRX4:RAMP1 1:0.25, log [Nateglinide] (M) -7.49485, Fig S3a, read-out: IP1 accumulation): 24%
- activation at 100 µM (ratio MRGPRX4:RAMP1 1:1, log [Nateglinide] (M) -4, Fig S3a, read-out: IP1 accumulation): 114%
- activation at 20 µM (ratio MRGPRX4:RAMP1 1:1, log [Nateglinide] (M) -4.69897, Fig S3a, read-out: IP1 accumulation): 87.9%
- activation at 4 µM (ratio MRGPRX4:RAMP1 1:1, log [Nateglinide] (M) -5.39794, Fig S3a, read-out: IP1 accumulation): 43.7%
- activation at 0.8 µM (ratio MRGPRX4:RAMP1 1:1, log [Nateglinide] (M) -6.09691, Fig S3a, read-out: IP1 accumulation): 22.8%
- activation at […] (ratio MRGPRX4:RAMP1 1:1, log [Nateglinide] (M) -6.79588, Fig S3a, read-out: IP1 accumulation): 17.6%
- activation at 0.032 µM (ratio MRGPRX4:RAMP1 1:1, log [Nateglinide] (M) -7.49485, Fig S3a, read-out: IP1 accumulation): 16%
- activation at 100 µM (ratio MRGPRX4:RAMP1 1:2, log [Nateglinide] (M) -4, Fig S3a, read-out: IP1 accumulation): 117%
- activation at 20 µM (ratio MRGPRX4:RAMP1 1:2, log [Nateglinide] (M) -4.69897, Fig S3a, read-out: IP1 accumulation): 93.3%
- activation at 4 µM (ratio MRGPRX4:RAMP1 1:2, log [Nateglinide] (M) -5.39794, Fig S3a, read-out: IP1 accumulation): 44.8%
- activation at 0.8 µM (ratio MRGPRX4:RAMP1 1:2, log [Nateglinide] (M) -6.09691, Fig S3a, read-out: IP1 accumulation): 18.6%
- activation at […] (ratio MRGPRX4:RAMP1 1:2, log [Nateglinide] (M) -6.79588, Fig S3a, read-out: IP1 accumulation): 14.5%
- activation at 0.032 µM (ratio MRGPRX4:RAMP1 1:2, log [Nateglinide] (M) -7.49485, Fig S3a, read-out: IP1 accumulation): 12.5%
- activation at 100 µM (ratio MRGPRX4:RAMP 1:0.5, log [Nateglinide] (M) -4, Fig S3a, read-out: IP1 accumulation): 113%
- activation at 20 µM (ratio MRGPRX4:RAMP 1:0.5, log [Nateglinide] (M) -4.69897, Fig S3a, read-out: IP1 accumulation): 93.7%
- activation at 4 µM (ratio MRGPRX4:RAMP 1:0.5, log [Nateglinide] (M) -5.39794, Fig S3a, read-out: IP1 accumulation): 46.5%
- activation at 0.8 µM (ratio MRGPRX4:RAMP 1:0.5, log [Nateglinide] (M) -6.09691, Fig S3a, read-out: IP1 accumulation): 24.4%
- activation at […] (ratio MRGPRX4:RAMP 1:0.5, log [Nateglinide] (M) -6.79588, Fig S3a, read-out: IP1 accumulation): 18.5%
- activation at 0.032 µM (ratio MRGPRX4:RAMP 1:0.5, log [Nateglinide] (M) -7.49485, Fig S3a, read-out: IP1 accumulation): 18.7%
- Emax (DNA ratio MRGPRX4:RAMP1 1:0.25): 109%
- Emax (DNA ratio MRGPRX4:RAMP1 1:0.5): 115%
- Emax (DNA ratio MRGPRX4:RAMP1 1:0.75): 118%
